# Reference: article PMC5882164, “A novel calcimimetic agent, evocalcet (MT-4580/KHK7580), suppresses the parathyroid cell function with little effect on the gastrointestinal tract or CYP isozymes in vivo and in vitro” (PLoS ONE, 2018)
# Where “and” joins values, the source holds several entries; their conditions need not be identical. Identical values can stand only once.
# Key:
# [1] = Plasma concentrations of evocalcet after repeated oral administration to 5/6 nephrectomized rats; type: in vivo, rat; settings: 5/6 Nx rats
# Method: (§1) In the single-dose study, blood samples were collected from the tail vein before and at 0.5, 2, 4, 8, 24, 48, and 72 h after the oral administration of vehicle (0.5% methyl cellulose solution) or evocalcet (0.03, 0.1, 0.3, or 1 mg/kg). In the repeated-dose study, vehicle or evocalcet was orally administered to the respective groups once daily for 14 days. Blood samples were obtained from the tail vein before the first administration and after the seventh and last administrations.
# The plasma concentrations of evocalcet were determined after single or repeated oral administration in both normal and 5/6 Nx rats. The pharmacokinetic (PK) parameters of the rat plasma concentrations were calculated individually using Phoenix WinNonlin 6.2, a PK analysis software program (Pharsight Corporation, Sunnyvale, CA).
# serum calcium = experiment: 5/6 nephrectomized rats study: serum calcium level; type: in vivo, rat; settings: 5/6 Nx rats, 0.03 mg/kg; for Serum Ca levels before (day 0) and 24 h after evocalcet administration, Mean / Serum Ca levels after the first administration, Mean: group mean; for Serum Ca levels before (day 0) and 24 h after evocalcet administration / Serum Ca levels after the first administration: individual rats
# Method: Rats were 5/6 nephrectomized in two steps. Under anesthesia (pentobarbital, 50 mg/kg; intraperitoneally) and analgesia (lidocaine; topically), two-thirds of the left kidney was removed, and then the right kidney was removed after a seven-day interval. Seven days after the completion of 5/6 nephrectomy, the FR-2 diet was changed to a high-phosphate diet, containing 0.6% calcium and 0.9% phosphate (Oriental Yeast Co., Ltd., Tokyo, Japan). Approximately 2 weeks after the initiation of the high-phosphate diet, the 5/6 Nx rats were divided into five groups (n = 12/group) matched in terms of their body weight as well as their blood urea nitrogen (BUN) and serum PTH and calcium levels.
# as §1
# The serum PTH level was measured using a Rat Intact PTH ELISA kit (Immutopics, Inc., San Clemente, CA). The serum calcium, phosphate and BUN levels were measured using an auto analyzer (Hitachi High-Technologies Corporation., Tokyo, Japan) or the following test kits: the Calcium E-test WAKO, the Phospha C-test WAKO, or the Blood Urea nitrogen B-test WAKO (Wako Pure Chemical Industries, Ltd., Osaka, Japan).
compound,measurement,setting,value
C[C@@H](N[C@H]1CCN(c2ccc(CC(=O)O)cc2)C1)c1cccc2ccccc12 [evocalcet],Plasma concentration,"[1]; repeated oral 0.03 mg/kg, Day 1, 0.5 h, individual rats, 0.03 mg/kg",36.58 ng/mL and 70.85 ng/mL and 82.54 ng/mL and 69.68 ng/mL and 77.69 ng/mL and 41.93 ng/mL and 76.13 ng/mL
same,Plasma concentration,"[1]; repeated oral 0.03 mg/kg, Day 1, 0.5 h, mean",64.96 ng/mL
same,Plasma concentration,"[1]; repeated oral 0.03 mg/kg, Day 1, 24 h, individual rats, 0.03 mg/kg",1.641 ng/mL and 1.374 ng/mL and 5.810 ng/mL and 8.969 ng/mL and 1.766 ng/mL and 7.813 ng/mL and 3.603 ng/mL
same,Plasma concentration,"[1]; repeated oral 0.03 mg/kg, Day 1, 24 h, mean",4.696 ng/mL
same,Plasma concentration,"[1]; repeated oral 0.03 mg/kg, Day 7, 24 h, individual rats, 0.03 mg/kg",2.975 ng/mL and 2.144 ng/mL and 14.97 ng/mL and 24.57 ng/mL and 7.857 ng/mL and 2.119 ng/mL and 5.014 ng/mL
same,Plasma concentration,"[1]; repeated oral 0.03 mg/kg, Day 7, 24 h, mean",6.838 ng/mL
same,Plasma concentration,"[1]; repeated oral 0.03 mg/kg, Day 14, 0.5 h, individual rats, 0.03 mg/kg",19.34 ng/mL and 56.51 ng/mL and 53.07 ng/mL and 90.16 ng/mL and 75.39 ng/mL and 23.11 ng/mL and 72.02 ng/mL
same,Plasma concentration,"[1]; repeated oral 0.03 mg/kg, Day 14, 0.5 h, mean",51.46 ng/mL
same,Plasma concentration,"[1]; repeated oral 0.03 mg/kg, Day 14, 24 h, individual rats, 0.03 mg/kg",3.012 ng/mL and 3.971 ng/mL and 9.010 ng/mL and 15.92 ng/mL and 10.68 ng/mL and 0.6289 ng/mL and 6.008 ng/mL
same,Plasma concentration,"[1]; repeated oral 0.03 mg/kg, Day 14, 24 h, mean",9.081 ng/mL
same,Plasma concentration,"[1]; repeated oral 0.1 mg/kg, Day 1, 0.5 h, individual rats, 0.1 mg/kg",202.3 ng/mL and 254.1 ng/mL and 209.7 ng/mL and 142.8 ng/mL and 254.2 ng/mL and 143.9 ng/mL and 56.83 ng/mL and 269.5 ng/mL
same,Plasma concentration,"[1]; repeated oral 0.1 mg/kg, Day 1, 24 h, individual rats, 0.1 mg/kg",15.16 ng/mL and 12.10 ng/mL and 8.688 ng/mL and 14.16 ng/mL and 21.79 ng/mL and 16.89 ng/mL and 67.75 ng/mL and 32.61 ng/mL
same,Plasma concentration,"[1]; repeated oral 0.1 mg/kg, Day 7, 24 h, individual rats, 0.1 mg/kg",58.71 ng/mL and 48.75 ng/mL and 30.51 ng/mL and 37.24 ng/mL and 78.95 ng/mL and 69.59 ng/mL and 161.4 ng/mL and 61.03 ng/mL
same,Plasma concentration,"[1]; repeated oral 0.1 mg/kg, Day 14, 0.5 h, individual rats, 0.1 mg/kg",127.4 ng/mL and 39.41 ng/mL and 36.70 ng/mL and 54.83 ng/mL and 93.73 ng/mL and 108.2 ng/mL and 128.5 ng/mL and 174.0 ng/mL
same,Plasma concentration,"[1]; repeated oral 0.1 mg/kg, Day 14, 24 h, individual rats, 0.1 mg/kg",5.812 ng/mL and 5.988 ng/mL and 9.558 ng/mL and 3.499 ng/mL and 32.22 ng/mL and 49.20 ng/mL and 104.7 ng/mL and 11.96 ng/mL
same,Plasma concentration,"[1]; 0.03 mg/kg oral once daily, Day 1, 0.5 h, mean, n = 12",64.96 ng/mL
same,Plasma concentration,"[1]; 0.03 mg/kg oral once daily, Day 1, 24 h, mean, n = 12",4.696 ng/mL
same,Plasma concentration,"[1]; 0.03 mg/kg oral once daily, Day 7, 24 h, mean, n = 12",6.838 ng/mL
same,Plasma concentration,"[1]; 0.03 mg/kg oral once daily, Day 14, 0.5 h, mean, n = 12",51.46 ng/mL
same,Plasma concentration,"[1]; 0.03 mg/kg oral once daily, Day 14, 24 h, mean, n = 12",9.081 ng/mL
same,Plasma concentration,"[1]; 0.1 mg/kg oral once daily, Day 1, 0.5 h, mean, n = 12",204.2 ng/mL
same,Plasma concentration,"[1]; 0.1 mg/kg oral once daily, Day 1, 24 h, mean, n = 12",21.78 ng/mL
same,Plasma concentration,"[1]; 0.1 mg/kg oral once daily, Day 7, 24 h, mean, n = 12",53.46 ng/mL
same,Plasma concentration,"[1]; 0.1 mg/kg oral once daily, Day 14, 0.5 h, mean, n = 12",133.8 ng/mL
same,Plasma concentration,"[1]; 0.1 mg/kg oral once daily, Day 14, 24 h, mean, n = 12",29.24 ng/mL
same,Plasma concentration,"[1]; 0.3 mg/kg oral once daily, Day 1, 0.5 h, mean, n = 12",545.5 ng/mL
same,Plasma concentration,"[1]; 0.3 mg/kg oral once daily, Day 1, 24 h, mean, n = 12",90.48 ng/mL
same,Plasma concentration,"[1]; 0.3 mg/kg oral once daily, Day 7, 24 h, mean, n = 12",190.6 ng/mL
same,Plasma concentration,"[1]; 0.3 mg/kg oral once daily, Day 14, 0.5 h, mean, n = 12",686.9 ng/mL
same,Plasma concentration,"[1]; 0.3 mg/kg oral once daily, Day 14, 24 h, mean, n = 12",102.1 ng/mL
same,Plasma concentration,"[1]; 1 mg/kg oral once daily, Day 1, 0.5 h, mean, n = 12",1635 ng/mL
same,Plasma concentration,"[1]; 1 mg/kg oral once daily, Day 1, 24 h, mean, n = 12",285.7 ng/mL
same,Plasma concentration,"[1]; 1 mg/kg oral once daily, Day 7, 24 h, mean, n = 12",557.2 ng/mL
same,Plasma concentration,"[1]; 1 mg/kg oral once daily, Day 14, 0.5 h, mean, n = 12",1769 ng/mL
same,Plasma concentration,"[1]; 1 mg/kg oral once daily, Day 14, 24 h, mean, n = 12",490.6 ng/mL
same,"Serum Ca levels before (day 0) and 24 h after evocalcet administration, Mean",serum calcium; day 0 (Before),7.862
same,Serum Ca levels before (day 0) and 24 h after evocalcet administration,serum calcium; day 0 (Before),6.475 and 7.379 and 7.410 and 6.746 and 6.842 and 8.689 and 8.077 and 8.881 and 8.577 and 8.645 and 8.453 and 8.169
same,"Serum Ca levels before (day 0) and 24 h after evocalcet administration, Mean",serum calcium; day 7 (24 h),6.700
same,Serum Ca levels before (day 0) and 24 h after evocalcet administration,serum calcium; day 7 (24 h),4.756 and 6.463 and 7.204 and 6.649 and 7.424 and 7.568 and 6.316 and 6.947 and 6.611 and 7.154 and 6.338 and 6.972
same,"Serum Ca levels before (day 0) and 24 h after evocalcet administration, Mean",serum calcium; day 14 (24 h),7.524
same,Serum Ca levels before (day 0) and 24 h after evocalcet administration,serum calcium; day 14 (24 h),6.629 and 7.365 and 7.620 and 6.148 and 7.312 and 8.717 and 7.991 and 8.107 and 7.192 and 7.532 and 7.865 and 7.809
same,"Serum Ca levels after the first administration, Mean",serum calcium; time 0 h,7.862
same,Serum Ca levels after the first administration,serum calcium; time 0 h,6.475 and 7.379 and 7.410 and 6.746 and 6.842 and 8.689
same,"Serum Ca levels after the first administration, Mean",serum calcium; time 0.5 h,7.066
same,Serum Ca levels after the first administration,serum calcium; time 0.5 h,5.843 and 6.570 and 6.547 and 6.666 and 6.639 and 7.943
same,"Serum Ca levels after the first administration, Mean",serum calcium; time 2 h,7.130
same,Serum Ca levels after the first administration,serum calcium; time 2 h,6.221 and 6.752 and 6.943 and 6.746 and 6.851 and 7.851
same,"Serum Ca levels after the first administration, Mean",serum calcium; time 4 h,7.511
same,Serum Ca levels after the first administration,serum calcium; time 4 h,6.129 and 7.183 and 6.895 and 7.539 and 6.860 and 8.183
